Measured values taken from patent US8093386B2, “Thioaryl substituted inhibitors of zinc proteases and their use” (Bracco Imaging S.p.A, priority 2006, dated 2012).

Tests used:
Type in all cases: biochemical
MMP-2 = target: T1, MMP-2 (Homo sapiens, UniProt P08253); assay: In vitro fluorometric inhibition assay of MMPs: MMP-2
T1 construct: gift of Prof; Gillian Murphy (Oncology Department, Cambridge University, UK)
T1 sequence (P08253 110-660): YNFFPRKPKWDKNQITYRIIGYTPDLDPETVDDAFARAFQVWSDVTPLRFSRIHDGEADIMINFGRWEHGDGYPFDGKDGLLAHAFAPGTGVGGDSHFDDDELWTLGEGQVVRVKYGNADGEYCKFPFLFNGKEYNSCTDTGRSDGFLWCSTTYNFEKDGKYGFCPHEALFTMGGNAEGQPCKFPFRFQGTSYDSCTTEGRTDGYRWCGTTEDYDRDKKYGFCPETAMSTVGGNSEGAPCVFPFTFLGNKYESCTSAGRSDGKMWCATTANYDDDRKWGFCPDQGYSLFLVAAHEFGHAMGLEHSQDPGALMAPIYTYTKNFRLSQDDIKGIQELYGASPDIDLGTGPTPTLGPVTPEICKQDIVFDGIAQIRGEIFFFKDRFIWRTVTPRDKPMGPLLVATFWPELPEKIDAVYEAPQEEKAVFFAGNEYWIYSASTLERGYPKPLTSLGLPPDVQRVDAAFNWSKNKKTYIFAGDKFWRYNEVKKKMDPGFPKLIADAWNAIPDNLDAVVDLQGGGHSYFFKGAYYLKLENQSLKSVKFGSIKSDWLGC
Description: (§1) Analysis of the In Vitro Inhibition Activity of Zinc Metalloproteinases: In Vitro Inhibition of MMMPs
(§2) The human recombinant Progelatinase A (pro-MMP-2), B (pro-MMP-9), MMP-14cd and MMP-16cd, were provided by Prof. Gillian Murphy (Oncology Department, Cambridge University, UK); pro-MMP-1, pro-MMP-3, pro-MMP-7, pro-MMP-8, pro-MMP-13 and pro-MMP-14 were bought from Calbiochem. The proenzymes were activated immediately before the use with p-aminophenylmercuric acetate (APMA 2 mM for 1 h at 37° C. for MMP-1, MMP-2 and MMP-8, 1 mM for 1 h at 37° C. for MMP-9 and MMP-7, 1 mM for 30 min at 37° C. for MMP-13). Pro-MMP-14 and pro-MMP-3 were activated with trypsin 5 μg/ml for 15 min at 37° C. followed the soybean trypsin inhibitor (SBTI) 23 μg/ml for pro-MMP-14 and 62 μg/ml for pro-MMP-3. The catalytic domains of MMP-14 and MMP-16 were utilized without activation.
(§3) For the assay measurements, the stock solutions of the inhibitor (DMSO, 100 mM) were further diluted up to 7 different concentrations (0.01 nM-300 μM) for each MMP, in the buffer for the fluorometric assay (FAB: Tris 50 mM, pH=7.5, NaCl 150 mM, CaCl2 10 mM, Brij 35 0.05% and DMSO 1%). The solutions of activated enzyme (final concentrations 2.9 nM for MMP-2, 2.7 nM for MMP-9, 2.4 nM for MMP-7, 1 nM for MMP-14 and MMP-3, 1.5 nM for MMP-8 and MMP-16cd, 0.84 nM for MMP-14cd, 0.66 nM for MMP-13 and 0.20 nM for MMP-1) and of inhibitor were incubated in the assay buffer for 4 h at 25° C. After the addition of solution of fluorogenic substrate 200 μM Mca-Arg-Pro-Lys-Pro-Val-Glu-Nva-Trp-Arg-Lys(Dnp)-NH2 (Sigma) for MMP-3 and Mca-Lys-Pro-Leu-Gly-Leu-Dpa-Ala-Arg-NH2 (Bachem) for all the other enzymes in DMSO (final concentration 2 μM), the hydrolysis were monitored every 15 sec for 20 min, recording the increase in fluorescence (λex=325 nm, λem=400 nm) with a Molecular Device SpectraMax Gemini XS plates reader. The assays were made in triplicate in a total volume of 200 μl per well on 96 well-plates for microtitolation (Corning, black, NBS). The control wells were without inhibitor.
(§4) The inhibition activity of MMP was expressed in relative fluorescence unit (RFU). The percentage of inhibition was calculated using control reactions without inhibitor.
(§5) IC50 was determined using the formula: Vi/Vo=1/(1+[I]/IC50), wherein Vi is the initial rate of the substrate scission in presence of the inhibitor at the concentration [I] and Vo is the initial rate in the absence of inhibitor. The results were analyzed with the SoftMax Pro software and the GraFit software.

TACE (ADAM17) = target: T2, TACE (ADAM17) (Homo sapiens, UniProt P78536); assay: Inhibition of ADAMs: activity on TACE (ADAM17), fluorometric assay
T2 construct: purchased CalBiochem
Description: Inhibition of ADAMS: Activity on TACE (ADAM17) Method 1: (only TACE)
The human recombinant TACE, from CalBiochem, was dissolved in FAB buffer (Tris 50 mM, pH=7.5, NaCl 150 mM, CaCl2 10 mM, Brij 35 0.05% and DMSO 1%) at the concentration of 200 μg/mL (2.85 μM) as stock solution. For the assay measurements, the stock solutions of the inhibitor (DMSO, 100 mM) were further diluted up to seven different concentrations (0.01 nM-300 μM) in FAB buffer. A solution of the enzyme (final concentration 3 nM) and the solutions of the inhibitors at different concentrations were incubated in FAB for 20 minutes at 25° C. After the addition of a 200 μM solution of the substrate Mca-Lys-Pro-Leu-Gly-Leu-Dap(Dnp)-Ala-Arg-NH2 (Bachem) in DMSO (final concentration 2 μM), the hydrolysis was monitored for 20 min, recording the increase in fluorescence (λex=325 nm, λem=400 nm) using a Molecular Device SpectraMax Gemini XS plates reader. The assays were made in triplicate in a total volume of 200 μl per well, on 96 well microplates (Corning, black, NBS). The inhibition activity of TACE was expressed in relative fluorescent units (RFU). The percentage of inhibition was calculated based in respect to the blanks control without inhibitor. The IC50 was determined following the equation: Vi/Vo=1/(1+[I]/IC50), where Vi is the initial rate of the hydrolysis of the substrate in the presence of the inhibitor at the concentration [I] and Vo is the initial rate in the absence of inhibitor. The results were analysed using the software SoftMax Pro and GraFit.

MMP-9 = target: T3, MMP-9 (Homo sapiens, UniProt P14780); assay: In vitro fluorometric inhibition assay of MMPs: MMP-9
T3 construct: gift of Prof; Gillian Murphy (Oncology Department, Cambridge University, UK)
Description: as §1
as §2, with “The proenzymes were activated immediately before the use with p-aminophenylmercuric acetate (APMA 2 mM for 1 h at 37° C. for MMP-1, MMP-2 and MMP-8, 1 mM for 1 h at 37° C. for MMP-9 and MMP-7, 1 mM for 30 min at 37° C. for MMP-13).” left out
as §3, with “The solutions of activated enzyme (final concentrations 2.9 nM for MMP-2, 2.7 nM for MMP-9, 2.4 nM for MMP-7, 1 nM for MMP-14 and MMP-3, 1.5 nM for MMP-8 and MMP-16cd, 0.84 nM for MMP-14cd, 0.66 nM for MMP-13 and 0.20 nM for MMP-1) and of inhibitor were incubated in the assay buffer for 4 h at 25° C.” left out
as §4, §5

MMP-1 = target: T4, MMP-1 (Homo sapiens, UniProt P03956); assay: In vitro fluorometric inhibition assay of MMPs: MMP-1; conditions: Table I, cells marked (*)
T4 construct: purchased Calbiochem
T4 sequence (P03956 100-469): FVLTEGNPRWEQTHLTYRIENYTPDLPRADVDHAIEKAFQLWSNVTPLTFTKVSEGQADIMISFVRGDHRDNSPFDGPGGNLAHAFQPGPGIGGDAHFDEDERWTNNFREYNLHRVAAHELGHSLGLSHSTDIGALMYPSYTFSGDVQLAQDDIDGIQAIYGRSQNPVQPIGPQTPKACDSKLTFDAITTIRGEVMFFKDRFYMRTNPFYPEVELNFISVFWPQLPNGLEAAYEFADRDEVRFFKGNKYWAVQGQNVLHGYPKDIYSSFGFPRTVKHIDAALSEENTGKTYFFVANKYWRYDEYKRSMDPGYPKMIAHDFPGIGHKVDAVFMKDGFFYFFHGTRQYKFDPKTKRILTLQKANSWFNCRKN
Description: as §1, §2, §3, §4, §5

T3 sequence (P14780 107-707 limits assumed): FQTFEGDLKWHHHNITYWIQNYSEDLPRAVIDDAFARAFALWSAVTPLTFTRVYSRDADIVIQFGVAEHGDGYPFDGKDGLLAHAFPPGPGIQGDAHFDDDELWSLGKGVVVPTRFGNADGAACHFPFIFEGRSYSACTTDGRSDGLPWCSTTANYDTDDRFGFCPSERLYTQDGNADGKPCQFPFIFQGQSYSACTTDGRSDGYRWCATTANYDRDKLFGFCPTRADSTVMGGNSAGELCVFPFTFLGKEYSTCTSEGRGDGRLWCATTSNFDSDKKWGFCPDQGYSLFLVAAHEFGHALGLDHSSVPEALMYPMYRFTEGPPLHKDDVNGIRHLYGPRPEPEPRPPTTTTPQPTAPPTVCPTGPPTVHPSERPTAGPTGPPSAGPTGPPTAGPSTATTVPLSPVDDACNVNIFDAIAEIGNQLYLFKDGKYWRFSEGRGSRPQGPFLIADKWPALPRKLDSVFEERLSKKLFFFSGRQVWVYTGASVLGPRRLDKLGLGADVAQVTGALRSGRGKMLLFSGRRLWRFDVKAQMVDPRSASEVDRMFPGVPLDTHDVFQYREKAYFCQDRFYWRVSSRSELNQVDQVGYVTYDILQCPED
T2 sequence (P78536 215-671 limits assumed): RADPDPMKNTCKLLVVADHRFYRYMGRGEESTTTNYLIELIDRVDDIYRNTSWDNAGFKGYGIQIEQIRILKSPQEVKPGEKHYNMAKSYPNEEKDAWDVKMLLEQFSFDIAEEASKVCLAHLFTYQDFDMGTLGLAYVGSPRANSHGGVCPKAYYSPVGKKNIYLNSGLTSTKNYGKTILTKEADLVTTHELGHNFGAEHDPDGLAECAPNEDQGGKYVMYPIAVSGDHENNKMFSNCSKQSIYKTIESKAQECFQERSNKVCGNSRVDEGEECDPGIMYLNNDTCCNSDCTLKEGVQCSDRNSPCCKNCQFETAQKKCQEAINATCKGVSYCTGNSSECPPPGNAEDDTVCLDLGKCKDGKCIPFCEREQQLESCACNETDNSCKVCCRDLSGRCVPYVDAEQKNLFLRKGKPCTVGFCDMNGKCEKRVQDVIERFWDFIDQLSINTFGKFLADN

Row | IC50 (MMP-2; Table IV) [nM] | IC50 (TACE (ADAM17); Table IV) [nM] | IC50 (MMP-2; Table I, cells marked (*)) [nM] | IC50 (MMP-9; Table I, cells marked (*)) [nM] | IC50 (MMP-9; Table IV) [nM] | IC50 (MMP-2; text b547) [nM] | IC50 (TACE (ADAM17); text b547) [nM] | IC50 (MMP-1) [nM] | SMILES
1 | 6200 ± 300 | 10200 ± 670 |  |  |  |  |  |  | COc1ccc(Sc2ccccc2CC(=O)NO)cc1 [Compound 21b, N-hydroxy-2-(2-(4-methoxyphenylthio)phenyl)acetamide]
2 | 6.8 ± 0.53 | 46200 ± 5340 | 6.8 ± 0.53 | 120 ± 17 | 120 ± 17 |  |  |  | COc1ccc(-c2ccc(Sc3ccccc3CC(=O)NO)cc2)cc1 [Compound 24, N-hydroxy-2-(2-(4′-methoxybiphenyl-4-ylthio)phenyl)acetamide]
3 |  |  |  |  |  | 1450 ± 33 | 462 ± 21 |  | CC#CCOc1ccc(Sc2ccccc2CC(=O)NO)cc1 [Compound 21c, 2-(2-(4-(but-2-iniloxy)phenylthio)phenyl)-N-hydroxyacetamide]
4 |  | 13400 ± 1930 | 41.1 ± 1.4 | 1200 ± 200 |  |  |  | 171000 ± 5000 | O=C(Cc1ccccc1Sc1ccc(-c2ccccc2)cc1)NO [Compound 21a]
